Test results from patent US7067625B1, “Isolated TWIK-1 potassium channel proteins” (Centre National de la Recherche Scientifique - CNRS, priority 1996, dated 2006).
Values belong to the compound of their own block, whether it stands above or below them.

Tests used:
[1] = target: T1, TWIK-1 (Homo sapiens, UniProt O00180); assay: Single channel patch-clamp recordings (attached and inside-out patch) of TWIK-1 in oocytes
T1 sequence (O00180 1-336): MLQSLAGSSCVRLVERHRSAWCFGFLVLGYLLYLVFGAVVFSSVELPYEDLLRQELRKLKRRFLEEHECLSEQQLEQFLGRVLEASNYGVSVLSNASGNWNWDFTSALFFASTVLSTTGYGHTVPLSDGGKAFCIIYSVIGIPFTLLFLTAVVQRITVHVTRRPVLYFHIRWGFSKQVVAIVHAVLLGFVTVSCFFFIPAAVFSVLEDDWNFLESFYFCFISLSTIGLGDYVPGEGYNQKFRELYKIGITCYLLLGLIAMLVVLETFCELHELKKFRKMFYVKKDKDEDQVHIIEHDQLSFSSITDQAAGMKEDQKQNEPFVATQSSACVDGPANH
Method: The pipettes were filled with a strong K^+ solution (40 mM KCl, 100 mM of potassium methane sulfonate, 1.8 mM CaCl2, 2 m M MgCl2 and 5 mM HEPES adjusted to pH 7.4 with KOH). 100 μM of GdCl3 was added to the pipette solution to inhibit the action of the activated channels. The inside-out patches were perfused with a solution containing 140 m M KCl, 10 mM CaCl2, 5 mM HEPES adjusted to pH 7.2 with KOH and 5 mM EGTA added daily. The single channel signals were filtered at 3.5 kHz and analyzed with the Biopatch program (Bio-Logic, Grenoble, France).

[2] = target: T1, TWIK-1; assay: Imposed voltage (two-microelectrode voltage-clamp) recording of TWIK-1 K+ currents in Xenopus oocytes injected with TWIK-1 cRNA; type: cell-based; set-up: expressed in transfected cells; host or cells: Xenopus laevis oocytes injected with cRNA transcribed from pEXO-TWIK-1; settings: for sensitivity of the TWIK-1 channel to K+ channel openers: 100 μM
Method: A complementary RNA (cRNA) was transcribed of this construction and injected in the oocytes of X. laevis.
The TWIK-1 coding sequence was amplified using a low-error rate DNA polymerase (Pwo DNA pol, Boehringer) and subcloned in the plasmid pEXOii so as to yield pEXO-TWIK-1. Mutations were performed using the whole plasmid pEXO-TWIK-1 with a highly reliable PCR extension kit (Boehringer) and two adjacent primers. […] The product of the PCR was linearized by the enzyme BamHI and the cRNA were synthesized using a T7 RNA polymerase (Stratagene).
In a 0.3-ml perfusion chamber, a single oocyte was impaled on two standard glass microelectrodes (0.5–2.0 MW) charged with 3 M KCl and maintained under voltage-clamp with a Dagan TEV200 amplifier. […] Stimulation of the preparation, data acquisition and analyses were carried out with the pClamp program (Axon Instruments, USA).

[3] = read-out: inhibition of TWIK-1 currents

SMILES: CCCCCCCCCCCCCC(=O)O[C@@H]1[C@@H](C)[C@@]2(O)[C@@H](C=C(CO)C[C@]3(O)C(=O)C(C)=C[C@@H]23)[C@@H]2C(C)(C)[C@]12OC(C)=O [PMA, phorbol-12 myristate acetate]
channels revealed in an attached patch initially expressing a single channel ([1]; attached patch, 30 nM PMA, +60 mV): at least five channels | effect on the TWIK-1 currents ([2]; 30 nM, perfusion 10 minutes): increases the TWIK-1 currents

SMILES: Nc1ncnc2c1ncn2[C@@H]1O[C@H](COP(=O)(O)OP(=O)(O)OP(=O)(O)O)[C@@H](O)[C@H]1O [ATP]
effect on the activity of the TWIK-1 channel ([1]; excised patch perfused with 10 mM): does not induce any effect

SMILES: CCCCc1oc2ccccc2c1C(=O)c1cc(I)c(OCCN(CC)CC)c(I)c1 [amiodarone]
inhibition at 100 µM [2, 3]: < 10%

inhibition at 30 µM [2]: < 10%
SMILES: COc1ccc(Cl)cc1C(=O)NCCc1ccc(S(=O)(=O)NC(=O)NC2CCCCC2)cc1 [glibenclamide]

sensitivity of channel activity to acidification of the internal solution ([1]; after excision of the patch, bubbling of CO2): insensitive | reduction in the TWIK-1 currents (of control amplitude) ([2]; intracellular acidification by superfusion with CO2-enriched solution): greater than 95%
SMILES: O=C=O [CO2]

SMILES: [Ba+2] [Ba^2+]
IC50 ([2]; Xenopus oocytes, +30 mV depolarization from HP -80 mV, read-out: IC50 of inhibition of the K+ currents of TWIK-1): 100 µM

SMILES: O=[N+]([O-])c1ccc(O)c([N+](=O)[O-])c1 [DNP, dinitrophenol]
reduction in the TWIK-1 currents (of control amplitude) ([2]; intracellular acidification by DNP, 1 mM): 80%

SMILES: CC(C)C[C@@H]1NC(=O)[C@H](C)NC(=O)[C@H]([C@@H](C)O)NC(=O)[C@H](CCC(=O)O)NC(=O)[C@@H]2CCCN2C(=O)[C@H](C)NC(=O)[C@H](CCCCN)NC(=O)[C@@H]2CSSC[C@@H](C(=O)N[C@@H](CCC(N)=O)C(=O)N[C@@H](CCC(N)=O)C(=O)N[C@@H](Cc3cnc[nH]3)C(N)=O)NC(=O)[C@H](CCCNC(=N)N)NC(=O)[C@H](CCCNC(=N)N)NC(=O)[C@H](C)NC(=O)[C@H](CSSC[C@H](N)C(=O)N[C@@H](CC(N)=O)C(=O)N2)NC1=O [apamin]
inhibition at 0.3 µM [2, 3]: < 10%

SMILES: CNc1ccc2oc(C[C@H]3O[C@@]4(CC[C@H]3C)O[C@H]([C@H](C)C(=O)c3ccc[nH]3)[C@H](C)C[C@H]4C)nc2c1C(=O)O [A23187]
effect on the properties of the TWIK-1 channel ([2]; 1 μM, elevation of cytoplasmic Ca2+): without effect

effect on the activity of TWIK-1 ([2]; 300 μM): does not affect
SMILES: Nc1ncnc2c1nc(Cl)n2[C@@H]1O[C@@H]2COP(=O)(O)O[C@H]2[C@H]1O [8-Cl-AMPc]

SMILES: CCCCCCCCCC(=O)O[C@@H]1[C@@H](C)[C@@]2(O)[C@@H](C=C(CO)C[C@@]3(O)C(=O)C(C)=C[C@@H]23)[C@@H]2C(C)(C)[C@]12OC(=O)CCCCCCCCC [PDA, 4α-phorbol-12, 13 didecanoate]
effect on the TWIK-1 currents ([2]; 1 μM): has no effect

SMILES: CC[N+](CC)(CC)CC [TEA]
inhibition of TWIK-1 currents ([2]; 20 mM): 30%

SMILES: Nc1ccncc1 [4-aminopyridine]
inhibition at 1000 µM ([2]; 1 mM): < 10%

sensitivity of the TWIK-1 channel to K+ channel openers [2]: not sensitive
SMILES: CC(N/C(=N\C#N)Nc1ccncc1)C(C)(C)C (stereo not drawn) [pinacidil]

inhibition at 30 µM [2]: < 10%
SMILES: CCCCCCC[N+](CC)(CC)CCCCc1ccc(Cl)cc1 [clofilium]

sensitivity of the TWIK-1 channel to K+ channel openers [2]: not sensitive
SMILES: CC1(C)Oc2ccc(C#N)cc2C(N2CCCC2=O)C1O (stereo not drawn) [cromakaline]
